According to patent US11622937B2, “Polyphenolic polymer to make water-insoluble molecules become water-soluble” (priority 2015, dated 2023):
Counter-ions that a name gives are not always drawn.

Columns and labels:
[1] = Comparative study of solubility profile in water (spectrophotometric absorption at 262); format: physicochemical; conditions: 200 ml DI water, filtered 0.45 micron
[2] = cited from earlier work
[3] = Solubility with Polyphenolic Polymer in water; conditions: molecule formulated with Polyphenolic Polymer
[4] = estimated; cited from earlier work

SMILES | solubility [1] | Solubility with Polyphenolic Polymer in water (more than 99%) [3] | Reported Solubility in water [2] | solubility in water [4]
CC(C)Cc1ccc(C(C)C(=O)O)cc1 (stereo not drawn) [Ibuprofen] | less than 1% | – | Insoluble | –
COC1=C(OC)C(=O)C(C/C=C(\C)CC/C=C(\C)CC/C=C(\C)CC/C=C(\C)CC/C=C(\C)CC/C=C(\C)CC/C=C(\C)CC/C=C(\C)CC/C=C(\C)CCC=C(C)C)=C(C)C1=O [CoQ10] | – | Water Soluble | Insoluble | –
NC(=O)N1c2ccccc2C=Cc2ccccc21 [Carbamazepine] | – | Water Soluble | Insoluble | –
CCCCCOC(=O)Nc1nc(=O)n([C@@H]2O[C@H](C)[C@@H](O)[C@H]2O)cc1F [Capecitabine] | – | Water Soluble | Insoluble | –
CC12CCC(CC1=O)C2(C)C (stereo not drawn) [Camphor] | – | Water Soluble | Insoluble | –
C#Cc1cccc(Nc2ncnc3cc(OCCOC)c(OCCOC)cc23)c1 [Erlotinib Monohydrochloride] | – | Water Soluble | Insoluble | –
C=C(c1ccc(C(=O)O)cc1)c1cc2c(cc1C)C(C)(C)CCC2(C)C [Bexarotene, Free Acid (4), Bexarotene] | – | – | Insoluble | 10 to 50 µM
Cc1ccc(-c2cc(C(F)(F)F)nn2-c2ccc(S(N)(=O)=O)cc2)cc1 [Celecoxib] | – | Water Soluble | Insoluble | –
CN1CCCC(n2nc(Cc3ccc(Cl)cc3)c3ccccc3c2=O)CC1 (stereo not drawn) [Azelastine] | – | Water Soluble | Insoluble | –

Now from value to compound, other results behind:

solubility [1] | Solubility with Polyphenolic Polymer in water (more than 99%) [3] | SMILES | Reported Solubility in water [2] | solubility in water [4]
– | Water Soluble | CO[C@H]1/C=C/O[C@@]2(C)Oc3c(C)c(O)c4c(O)c(c(/C=N/N5CCN(C)CC5)c(O)c4c3C2=O)NC(=O)/C(C)=C\C=C\[C@H](C)[C@H](O)[C@@H](C)[C@@H](O)[C@@H](C)[C@H](OC(C)=O)[C@@H]1C [Rifampin] | Insoluble | –
– | Water Soluble | CCc1nc(N)nc(N)c1-c1ccc(Cl)cc1 [Pyrimethamine] | Insoluble | –
– | Water Soluble | CN1C(C(=O)Nc2ccccn2)=C(O)c2ccccc2S1(=O)=O [Piroxicam (pain), Piroxicam] | Insoluble | –
– | Water Soluble | Nc1cccc2c1C(=O)N(C1CCC(=O)NC1=O)C2=O (stereo not drawn) [Pomalidomide] | Insoluble | –
– | Water Soluble | O=c1c(O)c(-c2ccc(O)cc2)oc2cc(O)cc(O)c12 [Kaempferol] | Insoluble | –
– | Water Soluble | CO[C@H]1C[C@@H]2CC[C@@H](C)[C@@](O)(O2)C(=O)C(=O)N2CCCC[C@H]2C(=O)O[C@H]([C@H](C)C[C@@H]2CC[C@@H](O)[C@H](OC)C2)CC(=O)[C@H](C)/C=C(\C)[C@@H](O)[C@@H](OC)C(=O)[C@H](C)C[C@H](C)/C=C/C=C/C=C/1C [Rapamycin] | Insoluble | –
